For series [1], the system named is Mouse insulinoma cells (MIN6). The following applies: 48 h, CCK-8, OD450. The method, then:
Mouse insulinoma cells (MIN6) (iCell Bioscience, Inc. Shanghai, China) were cultured in a 25 cm^2 cell culture flasks and then seeded into 96-well microplates at a density of 6.0×10^4 cells per well for the cell proliferation assay. […] After 48 h of incubation, 10 μL CCK-8 solution (cell counting kit, Dojindo China Co., Ltd. Shanghai, China) was gently mixed into the culture and the culture was further incubated for 1 to 4 hours. A microplate reader (Bio-Rad, USA) was used to measure cell viability at a 450 nm wavelength (OD450). The cell viability ratio (CRV) was calculated as (A-A0)/A0 × 100% (where A was the absorbance of the treated cell culture and A0 was the OD450 value of a blank (RPMI 1640 medium only)).
Fig 3 Mouse pancreatic β cell proliferation (A), RT-qPCR analysis of gene expression (B), and insulin secretion (C). MIN6 cells were seeded into flat-bottomed 96-well microtiter plates at a density of 6.0×10^4 cells per well. […] The control was cell cultures treated with DPBS only. […] The controls were cells incubated with just DPBS in the presence of 10mM glucose. Cell culture supernatants were collected and insulin concentration determined using a mouse insulin ELISA kit (JiNingShiYe Ltd. Shanghai, China). Data shown represent the mean ±SD (n = 6). Different letters or (*) indicate significant difference at p<0.05.

The test system of another series is pancreatin. The following applies: peptide 2.5 mg/mL, pancreatin 1.0 mg/mL, PBS pH 7.4, 37°C, SDS-PAGE with silver staining.
The next series deals with trypsin. As to conditions: peptide 10 mg/mL, trypsin 4 mg/mL, PBS pH 7.4, 37°C, SDS-PAGE with silver staining. As for the experimental part: (§1) Samples (20 μL) treated with either trypsin or pepsin for different lengths of time were then mixed with SDS-PAGE loading buffer (2×), heated at 100°С for 10 min, and then analyzed with SDS-PAGE. Protein bands on the gels were visualized by silver staining.
(§2) The reaction solutions were sampled at different time points and analyzed by SDS-PAGE. […] Negative control is trypsin only.

The next series addresses pepsin (Sus scrofa, UniProt P00791). As to conditions: peptide 1 mg/mL, pepsin 2 mg/mL, HCl solution pH 1.5~2.0, 37°C, SDS-PAGE with silver staining. The method, then:
as §1, §2

Read-outs that look alike come from different tables or passages of the source. Where no end group is shown, it is not given here.

Experimental findings from paper PMC5289641, “Bioactivity of a modified human Glucagon-like peptide-1” (PLoS ONE, 2017) are described below.

Sequence of pepsin (P00791 60-385): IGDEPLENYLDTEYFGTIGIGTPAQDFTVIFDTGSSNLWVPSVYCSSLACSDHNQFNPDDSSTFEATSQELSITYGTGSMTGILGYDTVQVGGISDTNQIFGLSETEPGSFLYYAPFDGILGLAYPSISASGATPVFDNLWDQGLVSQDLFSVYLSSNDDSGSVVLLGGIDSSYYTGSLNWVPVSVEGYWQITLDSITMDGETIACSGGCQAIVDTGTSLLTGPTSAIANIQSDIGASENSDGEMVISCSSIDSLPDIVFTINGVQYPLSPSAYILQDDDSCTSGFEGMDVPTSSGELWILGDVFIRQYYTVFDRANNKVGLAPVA

Turning to `CC[C@H](C)[C@H](NC(=O)[C@H](Cc1ccccc1)NC(=O)[C@H](CCC(=O)O)NC(=O)[C@H](CCCCN)NC(=O)[C@H](C)NC(=O)[C@H](C)NC(=O)[C@H](CCC(N)=O)NC(=O)CNC(=O)[C@H](CCC(=O)O)NC(=O)[C@H](CC(C)C)NC(=O)[C@H](Cc1ccc(O)cc1)NC(=O)[C@H](CO)NC(=O)[C@H](CO)NC(=O)[C@@H](NC(=O)[C@H](CC(=O)O)NC(=O)[C@H](CO)NC(=O)[C@@H](NC(=O)[C@H](Cc1ccccc1)NC(=O)[C@@H](NC(=O)CNC(=O)[C@H](CCC(=O)O)NC(=O)[C@H](C)NC(=O)[C@@H](N)Cc1c[nH]cn1)[C@@H](C)O)[C@@H](C)O)C(C)C)C(=O)N[C@@H](C)C(=O)N[C@@H](Cc1c[nH]c2ccccc12)C(=O)N[C@@H](CC(C)C)C(=O)N[C@H](C(=O)N[C@@H](CCCCN)C(=O)NCC(=O)N[C@@H](CCCNC(=N)N)C(N)=O)C(C)C` [GLP-1, reference compound], the figures for the “Cell viability ratio (CRV)” value in series [1] (0.3 μM peptide), in series [1] (3 μM peptide) and in series [1] (15 μM peptide) were 15.65%, 23.65% and 58.56%, respectively. Besides, in the series with pancreatin, the “State after 5 min with pancreatin” value is given as “quickly degraded”. Besides, in the series with pancreatin, the “State after 15 min in pancreatin” value is recorded as “completely destroyed”. For the same molecule, in the series with trypsin (8 h), the “State after 8 h incubation with trypsin” value is reported as “completely degraded”. Besides, the “Time to degradation by pepsin” value at pepsin is no more than 10 min.
Regarding “HGEGTFTSDVSSYLEGQAAQEFIAWLVDGR-NH2 [mGLP-1]”, in series [1] (0.3 μM peptide), the “Cell viability ratio (CRV)” value is on record as 10.58%. Moreover, the “Cell viability ratio (CRV)” value in series [1] (3 μM peptide) came to 20.58%. For the same molecule, the “Cell viability ratio (CRV)” value in series [1] (15 μM peptide) is on record as 60.26%. In the series with pancreatin, the “State after 5 min with pancreatin” value was “quickly degraded”, the “State after 15 min in pancreatin” value is “faint mGLP-1 was still detectable” and the “Resistance to pancreatin cleavage relative to native GLP-1” value is given as “more resistant”. Besides, in the series on trypsin, the “Resistance to trypsin cleavage relative to native GLP-1” value is listed as “more resistant” and the “Time resistant to trypsin cleavage” value is recorded as “up to 8 hours”. Moreover, the “Time to degradation by pepsin” value at pepsin is given as no more than 10 min.
